Test results reported in article PMC6153520, “Proteasome inhibition and mechanism of resistance to a synthetic, library-based hexapeptide” (Investigational New Drugs, 2018).
Where a SMILES comes first, the peptide text is derived from it. [ ]: non-standard residue; d: D form. The star is where a group is joined. His(τ-Bzl) = N[C@@H](Cc1cn(Cc2ccccc2)cn1)C(=O)O; Nle = CCCC[C@H](N)C(=O)O; NHBn = c1ccc(CN*)cc1; Bn = c1ccc(C*)cc1; OtBu = CC(C)(C)O*; tBu = CC(C)(C)*

Key:
[1] = test system: bortezomib-resistant THP1 cell lines; assay: Growth inhibition assay, cross-resistance; format: cell-based, human; details: relative to THP1/WT; 72 h growth inhibition
Procedure: Human monocytic/macrophage THP1 cells (ATTC, Manassas, USA) were cultured in RPMI-1640 medium supplemented with 5% fetal calf serum, 20 mM HEPES, 2 mM glutamine and 100 μg/ml penicillin/ streptomycin at 5% CO2 and 37 °C. Cell cultures were seeded at a density of 3 × 10^5 cells/ml and refreshed twice weekly. […] Some specific experiments also included THP1/BTZ100 cells that were cultured in the absence of BTZ for 6 months (further designated as THP1/BTZ (−100) cells). Mouse thymoma EL4 and human multiple myeloma H929 cells were cultured in RPMI-1640 medium supplemented with 8% fetal calf serum and 100 μg/ml penicillin/streptomycin at 5% CO2 and 37 °C.
Evaluation of drug sensitivity was carried out as described before. Cells were seeded at an initial density of 1.25 × 10^5 cells/ml in individual wells of a 24-well plate containing up to 50 μl of drug solutions. Inhibition of cell growth was determined after 72 h of incubation at 37 °C by determining the number of viable cells […] using trypan blue exclusion. The drug concentration required to inhibit cell growth by 50% compared to untreated controls was defined as the IC50.

[2] = test system: caspase-like proteasome activity; assay: Proteasome activity in THP1 cell extracts (fluorogenic substrate); format: biochemical, human; details: 1–100 μM, 1 h exposure
Procedure: (§1) Chymotrypsin-like, trypsin-like and caspase-like proteolytic activities of the proteasome were determined in freshly prepared cell lysates as described previously. Five million untreated or bortezomib-exposed THP1 cells were washed 3 times with ice-cold PBS and pelleted by centrifugation (5 min, 12,000 RPM, 4 °C). Cell pellets were then resuspended in an ATP-containing lysis buffer; 10 mM Tris-HCl buffer (pH 7.8) containing 5 mM ATP, 0.5 mM DTT and 5 mM MgCl2, and kept on ice for 10 min. For complete lysis, cells were sonicated (MSE sonicator, amplitude 7, for 3 × 5 s with 20 s time intervals at 4 °C) followed by centrifugation (5 min, 12,000 RPM, 4 °C) to remove cell debris. The supernatant was collected and protein concentration was determined using the Bio-Rad protein assay. […] The release of amc (7-amino-4-methyl-coumarin) was monitored online over a 2-h time period at 37 °C with 5 min intervals. Fluorescence was measured on a Tecan SpectraFluor apparatus (Giessen, The Netherlands) using excitation and emission wavelengths of 360 and 465 nm, respectively. Proteolytic activity was calculated from the slopes of the linear portion of the curves. All results were expressed as percentage relative to untreated THP1/WT cells (100%). […]

[3] = test system: trypsin-like proteasome activity; assay: as above; format: biochemical, human; details: 1–100 μM, 1 h exposure
Procedure: as §1

[4] = target: T1, proteasome purified from bovine liver (Bos taurus, UniProt Q32KL2); assay: 4A6 cleavage assay (MALDI-TOF); format: biochemical; details: 1 μg proteasome, 1 μg 4A6, pH 8.5, 45 °C, 16 h
T1 construct: Proteasome was purified from bovine liver as described previously; from tissue; host or cells: bovine liver
Procedure: Proteasome was purified from bovine liver as described previously. For digestion assays, 1 μg proteasome was incubated with 1 μg 4A6 in 50 μl of 50 mM Tris-HCl buffer pH 8.5 at 45 °C for 16 h. Subsequently, the reaction mixture was lyophilized and peptides purified using reversed-phase ZipTip®C18 tips (Millipore). The purified peptide mixture was mixed in a 1:1 ratio with 10 mg/ml 2,5-dihydroxybenzoic acid (DHB, Bruker Daltonik) matrix solution in 0.1% TFA and spotted onto a MALDI (matrix assisted laser desorption/ ionization) target plate. MALDI-TOF analysis was performed on an Autoflex, linear MALDI-TOF-MS (Bruker Daltonik GmbH, Bremen, Germany). Spectra were analyzed with flexAnalysis software (Bruker Daltonik).

[5] = test system: THP1/BTZ200 cells; assay: Apoptosis assay (Annexin-V/7-AAD flow cytometry); format: cell-based, human; details: 24 h, 4A6 over 0–25 μM
Procedure: (§2) Induction of apoptosis was analyzed by flow cytometry using APOPTEST™-FITC A700 (VPS Diagnostics, Hoeven, the Netherlands) according to the instructions of the manufacturer. In short, induction of apoptosis was determined after 24 h’ drug exposure. One million cells were harvested and washed 3 times with ice-cold PBS. The cell pellet was incubated for 30 min with 7-Amino-actinomycin D (7-AAD) on ice followed by incubation with Annexin-V according to the instructions of the manufacturer. Annexin-V (early apoptosis) and 7-AAD (late apoptosis) staining was measured by flow cytometry (Beckton & Dickinson, FACScalibur) and analysed using FCSexpress V3 software (Denovo software, Thornhill, Canada).

[6] = test system: THP1/WT cells; assay: Apoptosis assay (Annexin-V/7-AAD flow cytometry); format: cell-based, human; details: 24 h exposure
Procedure: as §2

[7] = test system: Multidrug Resistance-associated Protein 1 (MRP1/ABCC1); design: method as in PMID 11289130; details: ref [32]; cited from earlier work

CCCC[C@H](NC(=O)[C@@H](NC(=O)[C@H](Cc1cn(Cc2ccccc2)cn1)NC(=O)[C@@H](NC(C)=O)[C@@H](C)OC(C)(C)C)[C@@H](C)OCc1ccccc1)C(=O)N[C@@H](CCC(=O)OC(C)(C)C)C(=O)NCC(=O)NCc1ccccc1 [4A6, Ac-Thr(tBu)-His(Bzl)-Thr(Bzl)-Nle-Glu(OtBu)-Gly-Bza] (Ac-T(tBu)[His(τ-Bzl)]T(Bn)[Nle]E(OtBu)G-NHBn)
cross-resistance of bortezomib-resistant cell lines [1]: up to 287 fold | inhibitory effect on caspase-like activity [2]: no inhibitory effect | inhibitory effect on trypsin-like activity [3]: no inhibitory effect | proteolytic cleavage by purified proteasomes [4]: predominantly cleaved at the P4-P5 position | induction of apoptosis [5]: none | induction of apoptosis [6]: efficient induction of apoptosis | ability to reverse efflux pump MDR (ABCC1) [7]: lacked the ability to reverse efflux pump MDR | substrate of MDR efflux transporter ABCC1 [7]: substrate
